Assay results published in patent US20130202653A1, “3-ARYL-3-HYDROXY-2-AMINO-PROPIONIC ACID AMIDES, 3-HETEROARYL-3-HYDROXY-2-AMINOPROPIONIC ACID AMIDES AND RELATED COMPOUNDS HAVING ANALGESIC AND/OR IMMUNO STIMULANT ACTIVITY” (Allergan, Inc., priority 2005, published 2013).
Counter-ions that a name gives are not always drawn. Like-named read-outs stand apart in the source and are kept apart here.

Test system: tactile allodynia in the rat Chung model
Experiment: Chung model: reversal of tactile allodynia (von Frey hairs) after spinal nerve ligation
Format: in vivo
Settings: for inhibition in vivo at 0.3 mg/kg / inhibition in vivo at 0.03 mg/kg: Rattus norvegicus, ip, read-out: Peak % Pain reversal: time post dose; for inhibition in vivo at 0.3 mg/kg / Peak % Pain reversal: time post dose: 300 μg/kg IP; for inhibition in vivo at 0.03 mg/kg: 30 μg/kg IP
Source text: An art-accepted model or assay for measuring an analgesic effect of a compound in chronic pain (in particular peripheral neuropathy) is the model known as Kim and Chung 1992, Pain […], pp 355-363 (Chung model). This model involves the surgical ligation of the L5 (and optionally the L6) spinal nerves on one side in experimental animals. Rats recovering from the surgery gain weight and display a level of general activity similar to that of normal rats. However, these rats develop abnormalities of the foot, wherein the hindpaw is moderately everted and the toes are held together. More importantly, the hindpaw on the side affected by the surgery appears to become sensitive to low-threshold mechanical stimuli and will perceive pain instead of the faint sensation of touch. This sensitivity to normally non-painful touch, called “tactile allodynia”, develops within the first week after surgery and lasts for at least two months. The allodynia response includes lifting the affected hindpaw to escape from the stimulus, licking the paw and holding it in the air for many seconds. None of these responses is normally seen in the control group.
To produce the tactile allodynia, rats are anesthetized before surgery. The surgical site is shaved and prepared either with betadine or Novacaine. Incision is made from the thoracic vertebra X111 down toward the sacrum. Muscle tissue is separated from the spinal vertebra (left side) at the L4-S2 levels. The L6 vertebra is located and the transverse process is carefully removed with a small rongeur to expose the L4-L6 spinal nerves. The L5 and L6 spinal nerves are isolated and tightly ligated with 6-0 silk thread. The same procedure is done on the right side as a control, except no ligation of the spinal nerves is performed.
After a complete hemostasis is confirmed, the wounds are sutured. A small amount of antibiotic ointment is applied to the incised area, and the rat is transferred to the recovery plastic cage under a regulated heat-temperature lamp.
On the day of the experiment, at least seven days after the surgery, typically six rats per test group are administered the test drugs by intraperitoneal (i.p.) injection or oral gavage (p.o.). For i.p. administration, the compounds are formulated in H2O and given in a volume of 1 ml/kg body weight by injecting into the intraperitoneal cavity. For p.o. administration, the compounds are formulated in H2O and given in a volume of 1 ml/kg body weight using an 18-gauge, 3 inch gavage needle that is slowly inserted through the esophagus into the stomach.
Tactile allodynia is assessed via von Frey hairs, which are a series of fine hairs with incremental differences in stiffness. Rats are placed in a plastic cage with a wire mesh bottom and allowed to acclimate for approximately 30 minutes. To establish the pre-drug baseline, the von Frey hairs are applied perpendicularly through the mesh to the mid-plantar region of the rats' hindpaw with sufficient force to cause slight buckling and held for 6-8 seconds. The applied force has been calculated to range from 0.41 to 15.1 grams. If the paw is sharply withdrawn, it is considered a positive response. A normal animal will not respond to stimuli in this range, but a surgically ligated paw will be withdrawn in response to a 1-2 gram hair. The 50% paw withdrawal threshold is determined using the method of Dixon, W. J., Ann. Rev. Pharmacol. Toxicol. 20:441-462 (1980) hereby incorporated by reference. Tactile allodynia is measured prior to and 15, 30, and 60 minutes after drug administration. The post-drug threshold is compared to the pre-drug threshold and the percent reversal of tactile sensitivity is calculated based on a normal threshold of 15.1 grams.
Table 1 below indicates the degree of pain reversal obtained in the Chung model with exemplary compounds of the invention. […]

[1] = 0.5 h, peak at 30 min post dose

Compound	inhibition in vivo at 0.3 mg/kg (1 h, peak at 60 min post dose)	further results
CC(C)(C)OC(=O)N[C@@H](C(=O)N1CCCC1)[C@@H](O)c1ccncc1 (racemic) [Compound 218, tert-butyl(±)-threo-1-hydroxy-3-oxo-1-(pyridin-4-yl)-3-(pyrrolidin-1-yl)propan-2-ylcarbamate hydrochloride]	32%	–
N[C@@H](C(=O)N1CCCC1)[C@H](O)c1ccncc1 (racemic) [Compound 219, (±)-erythro-2-amino-3-hydroxy-3-(pyridin-4-yl)-1-(pyrrolidin-1-yl)propan-1-one dihydrochloride]	–	inhibition in vivo at 0.03 mg/kg (1 h, peak at 60 min post dose): 82%
NC(C(=O)N1CCCC1)C(=NO)c1ccncc1 (racemic) [Compound 224, (±)-2-Amino-3-(hydroxyimino)-3-(pyridin-4-yl)-1-(pyrrolidin-1-yl)propan-1-one dihydrochloride]	51%	–
O=C([C@H](NCc1ccccc1I)[C@@H](O)c1ccncc1)N1CCCC1 (racemic) [Compound 226, (±)-threo-2-(2-iodobenzylamino)-3-hydroxy-3-(pyridin-4-yl)-1-(pyrrolidin-1-yl)-propan-1-one dihydrochloride]	95%	–
O=C([C@H](NCc1cccc(I)c1)[C@@H](O)c1ccncc1)N1CCCC1 (racemic) [Compound 227, (±)-threo-2-(3-iodobenzylamino)-3-hydroxy-3-(pyridin-4-yl)-1-(pyrrolidin-1-yl)-propan-1-one dihydrochloride]	–	inhibition in vivo at 0.3 mg/kg [1]: 95%
N[C@@H](C(=O)N1CCOCC1)[C@@H](O)c1ccsc1 (racemic) [Compound 230, (±)-threo-2-Amino-3-hydroxy-1-morpholino-3-(thiophen-3-yl)propan-1-one hydrochloride]	–	inhibition in vivo at 0.3 mg/kg [1]: 52%
N[C@@H](C(=O)N1CCOCC1)[C@@H](O)c1cccnc1 (racemic) [Compound 232, (±)-threo-2-Amino-3-hydroxy-1-morpholino-3-(pyridin-3-yl)propan-1-one dihydrochloride]	80%	–
NCCCCCC(=O)N[C@@H](C(=O)N1CCCC1)[C@@H](O)c1ccncc1 (racemic) [Compound 238, 6-amino-N-((±)-threo-1-hydroxy-3-oxo-1-(pyridin-4-yl)-3-(pyrrolidin-1-yl)propan-2-yl)hexanamide]	61%	–
C[C@@](O)(c1ccncc1)[C@@H](N)C(=O)N1CCCC1 (racemic) [Compound 239, (±)-erythro-2-Amino-3-hydroxy-3-(pyridin-4-yl)-1-(pyrrolidin-1-yl)butan-1-one dihydrochloride]	–	inhibition in vivo at 0.3 mg/kg [1]: 75%
Cn1ccnc1[C@H](O)[C@@H](N)C(=O)N1CCCC1 (racemic) [Compound 254, (±)-threo-2-Amino-3-hydroxy-3-(1-methyl-1H-imidazol-2-yl)-1-(pyrrolidin-1-yl)propan-1-one dihydrochloride]	62%	–
NC(C(=O)N1CCCC1)C(O)c1ccsc1 (single isomer, unassigned; (+)) [Compound 205, (+)-threo-2-Amino-3-hydroxy-1-(pyrrolidin-1-yl)-3-(thiophen-3-yl)propan-1-one hydrochloride]	–	inhibition in vivo at 0.3 mg/kg [1]: 62%
NC(C(=O)N1CCCC1)C(O)c1ccsc1 (single isomer, unassigned; (-)) [Compound 206, (−)-threo-2-Amino-3-hydroxy-1-(pyrrolidin-1-yl)-3-(thiophen-3-yl)propan-1-one hydrochloride]	–	Peak % Pain reversal: time post dose (peak at 30 min post dose, hydrochloride): 67% 30 min
NC(C(=O)N1CCCC1)C(O)c1cccnc1 (single isomer, unassigned; (-)) [Compound 207, (−)-threo-2-Amino-3-hydroxy-3-(pyridin-3-yl)-1-(pyrrolidin-1-yl)propan-1-one dihydrochloride]	96%	–
NC(C(=O)N1CC[C@H](F)C1)C(O)c1ccncc1 (single isomer, unassigned; (-)) [Compound 248, dihydrochloride]	–	inhibition in vivo at 0.03 mg/kg (1 h, peak at 60 min post dose): 59%
N[C@@H](C(=O)N1CCCC1)[C@@H](O)c1ccncc1 [Compound 203, (−)-(2R,3S)-2-Amino-3-hydroxy-3-(pyridin-4-yl)-1-(pyrrolidin-1-yl)propan-1-one dihydrochloride]	87%	–
N[C@H](C(=O)N1CCCC1)[C@H](O)c1ccncc1 [Compound 204, (+)-(2S,3R)-2-Amino-3-hydroxy-3-(pyridin-4-yl)-1-(pyrrolidin-1-yl)propan-1-one dihydrochloride]	50%	–
NC(C(=O)N1CC[C@H](F)C1)C(O)c1ccncc1 (stereo partly drawn) [Compound 214, (2S,3R)- & (2R,3S)-2-Amino-1-((S)-3-fluoropyrrolidin-1-yl)-3-hydroxy-3-(pyridin-4-yl)propan-1-one dihydrochlorides]	–	inhibition in vivo at 0.03 mg/kg (1 h, peak at 60 min post dose): 86%
NC(C(=O)N1CC[C@@H](F)C1)C(O)c1ccncc1 (stereo partly drawn) [Compound 215, (2S,3R)- & (2R,3S)-2-Amino-1-((R)-3-fluoropyrrolidin-1-yl)-3-hydroxy-3-(pyridin-4-yl)propan-1-one dihydrochlorides]	73%	–
N[C@@H](C(=O)N1CCCC1)[C@H](O)c1ccncc1 [Compound 220, (−)-(2R,3R)-2-amino-3-hydroxy-3-(pyridin-4-yl)-1-(pyrrolidin-1-yl)propan-1-one dihydrochloride]	–	inhibition in vivo at 0.3 mg/kg [1]: 32%
N[C@H](C(=O)N1CCCC1)[C@@H](O)c1ccncc1 [Compound 221, (+)-(2S,3S)-2-amino-3-hydroxy-3-(pyridin-4-yl)-1-(pyrrolidin-1-yl)propan-1-one dihydrochloride]	87%	–
O=C([C@@H](NCc1cccc(I)c1)[C@H](O)c1ccncc1)N1CCCC1 [Compound 228, (+)-(2S,3R)-2-(3-iodobenzylamino)-3-hydroxy-3-(pyridin-4-yl)-1-(pyrrolidin-1-yl)-propan-1-one dihydrochloride]	36%	–
O=C([C@H](NCc1cccc(I)c1)[C@@H](O)c1ccncc1)N1CCCC1 [Compound 229, (2R,3S)-2-(3-iodobenzylamino)-3-hydroxy-3-(pyridin-4-yl)-1-(pyrrolidin-1-yl)-propan-1-one dihydrochloride]	53%	–
O=C([C@H](N[C@@H](CO)c1ccccc1)[C@@H](O)c1ccncc1)N1CCCC1 [Compound 234, (2R,3S)-2-((R)-2-Hydroxy-1-phenylethylamino)-3-hydroxy-3-(pyridin-4-yl)-1-(pyrrolidin-1-yl)propan-1-one dihydrochloride]	59%	–
N[C@H](Cc1ccncc1)C(=O)N1CCCC1 [Compound 236, (R)-2-amino-3-(pyridin-4-yl)-1-(pyrrolidin-1-yl)propan-1-one dihydrochloride]	32%	–
N[C@@H](Cc1ccncc1)C(=O)N1CCCC1 [Compound 240, (S)-2-amino-3-(pyridin-4-yl)-1-(pyrrolidin-1-yl)propan-1-one dihydrochloride]	–	inhibition in vivo at 0.03 mg/kg (1 h, peak at 60 min post dose): 70%
Cl.Cl.N[C@H](C(=O)N1CC[C@@H](O)C1)[C@H](O)c1ccncc1 [Compound 247, (2S,3R)- & (2R,3S)-2-Amino-1-((R)-3-hydroxypyrrolidin-1-yl)-3-hydroxy-3-(pyridin-4-yl)propan-1-one dihydrochlorides]	–	Peak % Pain reversal: time post dose (peak at 60 min post dose): 42% 60 min
